Measurements taken from patent US20250194597A1, “METHOD FOR INCREASING FLAVONOID CONTENT IN PLANT THROUGH TREATMENT WITH LOW-MOLECULAR-WEIGHT SULFUR COMPOUND” (REPUBLIC OF KOREA (RURAL DEVELOPMENT ADMINISTRATION), priority 2022, published 2025).

Key:
Assay type in all cases: in vivo
[1] = tested on: rice cultivar purple rice; experiment: Anthocyanin coloration of rice cultivar purple rice; conditions: for anthocyanin coloration in the hypocotyls: cultured 7 days
Experimental: To confirm whether anthocyanin coloring effects occur when not only dicotyledonous plants but also gramineous plants, which are monocotyledonous plants, are treated with S17 or 3-(2-S), seeds of the rice cultivar purple rice were sown on ½ MS medium containing each of S17 (40 μM) or 3-(2-S) (80 μM) and cultured for 7 days to observe anthocyanin coloration.

Arabidopsis thaliana = experiment: Anthocyanin coloration of Arabidopsis thaliana seedlings; conditions: cultured 5 days; for anthocyanin coloration: 50 μM or 200 μM + 4% sucrose
Experimental: To confirm whether anthocyanin coloring effect occurs when Arabidopsis thaliana, which is a cruciferous plant such as Chinese cabbage, is treated with S17 or 3-(2-S), Arabidopsis thaliana was treated with S17 or 3-(2-S) alone, and each was treated with 4% sucrose. Specifically, Arabidopsis thaliana seeds were germinated on ½ MS solid medium supplemented with 1% sucrose, and then day 6 seedlings were placed on ½ MS medium supplemented with each of S17 (50 μM or 200 μM)+4% sucrose, or 3-(2-S) (50 μM or 200 μM)+4% sucrose and cultured for 5 days to observe anthocyanin coloration.

[2] = tested on: Chinese cabbage cultivar 5923; experiment: Anthocyanin coloration observed with the naked eye, Chinese cabbage cultivar 5923 seedlings; conditions: cultured 10 days
Experimental: (§1) 3-(3-Thienyl) acrylic acid (hereinafter referred to as S17) and 3-(2-Thienyl) acrylic acid (hereinafter referred to as 3-(2-S)) dissolved in DMSO at a concentration of 50 μM or 200 μM, respectively, were prepared, and seeds of commercial Chinese cabbage cultivars 5923 and Hwimori were sterilized and then germinated on ½ MS solid medium to prepare 4-day seedlings showing consistent growth.

[3] = tested on: Chinese cabbage cultivar Whimori; experiment: Flavonoid content of leaves by HPLC after aglyconization, cultivar Whimori
Experimental: as §1
(§2) The leaves of the cultivars 5923 and Whimori prepared in Example 1-1 were collected and crushed, and then extracted with 50% methanol containing 2N HCl at 95° C. for 2 hours, and flavonoid substances present in the form of glycosides in the plants were aglyconized and analyzed by HPLC. After the substances were separated through HPLC using a C18 column, peaks were detected at 350 nm and 520 nm, and flavonoids and anthocyanin non-glycosides in the extract were identified by comparing the retention time and UV spectrum of flavonol non-glycoside standards such as kaempferol, quercetin, myricetin and isorhamnetin, and anthocyanin non-glycoside standards such as pelargonidin, cyanidin and delphinidin, respectively, and the content of the identified flavonoid and anthocyanin substances was estimated based on the concentration of the standards and the area of the peak. As a control group, the cultivar 5923 or Whimori that was not treated with sulfur compounds was used.

[4] = tested on: Chinese cabbage cultivar 5923; experiment: Flavonoid content of leaves by HPLC after aglyconization, cultivar 5923; conditions: for cyanidin accumulation: 200 μM alone (no sucrose); for kaempferol content: treated alone (no sucrose), 50 and 200 μM, vs control
Experimental: as §1, §2

[5] = tested on: Chinese cabbage cultivar Whimori; experiment: Anthocyanin coloration observed with the naked eye, Chinese cabbage cultivar Whimori seedlings; conditions: 50 μM or 200 μM, cultured 10 days
Experimental: as §1

For `O=C(O)/C=C/c1cccs1` [3-(2-S), 3-(2-Thienyl) acrylic acid], the “anthocyanin coloration in the hypocotyls” value ([1]; 80 μM) was “anthocyanin coloration was strong”, the anthocyanin coloration (Arabidopsis thaliana) was “anthocyanin coloration occurred” and the “anthocyanin coloration (naked eye)” value ([2]; 200 μM + 4% sucrose) was “Coloration was confirmed”. For the same compound, the production of cyanidin ([3]; 200 μM + 4% sucrose) was “produced”, the production of isorhamnetin ([3]; 200 μM + 4% sucrose) was “produced” and the production of quercetin ([3]; 200 μM + 4% sucrose) was “produced”. The kaempferol content ([3]; + 4% sucrose, concentration dependence) was “increased in a concentration-dependent manner”, the “kaempferol content compared to the control group” value ([3]; treated alone (no sucrose)) was “remarkably increased” and the cyanidin accumulation [4] was “cyanidin was accumulated”. For the same compound, the kaempferol content [4] was “increased in a concentration-dependent manner” and the “anthocyanin coloration (naked eye)” value [5] was “red coloration in Chinese cabbage in a concentration-dependent manner”.
With `O=C(O)/C=C/c1ccsc1` [S17, 3-(3-Thienyl) acrylic acid] the “anthocyanin coloration in the hypocotyls” value ([1]; 40 μM) was “anthocyanin coloration was strong”, the “coloration-inducing effect (anthocyanin production effect) relative to 3-(2-S)” value ([1]; S17 40 μM vs 3-(2-S) 80 μM) was “comparatively superior” and the anthocyanin coloration (Arabidopsis thaliana) was “anthocyanin coloration occurred”. For the same compound, the “anthocyanin coloring compared to the 3-(2-S) treated group” value (Arabidopsis thaliana; + 4% sucrose) was “stronger coloring”, the “anthocyanin coloration (naked eye)” value ([2]; 50 μM + 4% sucrose) was “coloration appeared on the back of the cotyledons and true leaves” and the “anthocyanin coloration (naked eye)” value ([2]; 200 μM + 4% sucrose) was “slightly increased coloration appeared”. The “anthocyanin coloration (naked eye)” value ([2]; 200 μM alone, no sucrose) was “coloration appeared on the back of the leaves”, the “kaempferol content compared to the control group” value ([3]; 50 μM and 200 μM + 4% sucrose) was “remarkably increased” and the production of cyanidin ([3]; 50 μM and 200 μM + 4% sucrose) was “produced”. The production of isorhamnetin ([3]; 50 μM and 200 μM + 4% sucrose) was “produced”, the production of quercetin ([3]; 50 μM and 200 μM + 4% sucrose) was “produced” and the “kaempferol content compared to the control group” value ([3]; treated alone (no sucrose)) was “remarkably increased”. For the same compound, the “kaempferol content increase compared to the control group” value ([4]; 50 μM + 4% sucrose) was “up to 6.3 times”, the production of isorhamnetin ([4]; 50 μM + 4% sucrose) was “confirmed” and the production of quercetin ([4]; 50 μM + 4% sucrose) was “confirmed”. For the same compound, the “cyanidin content compared to the control group” value ([4]; 200 μM + 4% sucrose) was “remarkably increased”, the cyanidin accumulation [4] was “cyanidin was accumulated” and the anthocyanin production ability ([4]; 200 μM vs 50 μM treated group, + 4% sucrose) was “remarkably enhanced”. For the same compound, the kaempferol content [4] was “increased in a concentration-dependent manner” and the “anthocyanin coloration (naked eye)” value [5] was “red coloration in Chinese cabbage in a concentration-dependent manner”.
